Reference: ChEMBL document CHEMBL2417368, “Structure-based discovery of novel amide-containing nicotinamide phosphoribosyltransferase (nampt) inhibitors” (J Med Chem, 2013)
Activity calls are given as the source filed them. The rule behind the calls is not given here.

What was measured:
[1] = target: Nicotinamide phosphoribosyltransferase (Homo sapiens, UniProt P43490)
A2780 = assay: cells; settings: Homo sapiens, A2780, 72 h
Liver [2] = assay: (§1) Metabolic stability in mouse liver microsomes assessed as compound remaining at 1 uM after 30 mins LC-MS analysis; assay type: ADME, Microsome; settings: microsomes, 0.5 h, 1 µM, BLD = below limit of detection
[3] = (§2) Metabolic stability in human liver microsomes assessed as compound remaining at 1 uM after 30 mins LC-MS analysis; assay type: ADME, Microsome; settings: liver microsomes, read-out: Stability
Liver [4] = assay: as §2; assay type: ADME, Microsome; settings: microsomes, 0.5 h, 1 µM, BLD = below limit of detection
U-251 [5] = assay: Antitumor activity against human U251 cells xenografted in athymic nu/nu mouse assessed as reduction in tumor size at 25 mg/kg, po QD for 7 days measured on day 13; assay type: functional, organism-based; set-up: dose 25 mg/kg
[6] = AUC (infinity) in NCR nude mouse at 10 mg/kg, po; assay type: ADME, organism-based; set-up: time infinity, dose 10 mg/kg, route oral; settings: plasma
MIA PaCa-2 = assay: Antiproliferative activity against human MIAPaCa2 cells assessed as cell viability after 72 hrs; assay type: functional, cell-based; settings: MIA PaCa-2, 72 h
[7] = Fraction unbound in human plasma at 5 uM after 4 hrs by LC-MS/MS analysis; assay type: ADME, cell-free
U-251 [8] = assay: Antiproliferative activity against human U251 cells assessed as cell viability after 72 hrs by SRB assay; assay type: functional, cell-based; settings: U-251, 72 h
[9] = Volume of distribution at steady state in NCR nude mouse at 5 mg/kg, iv; assay type: ADME, organism-based; set-up: dose 5 mg/kg, route intravenous; settings: in vivo, read-out: Vdss
HT-1080 = assay: Antiproliferative activity against human HT1080 cells assessed as cell viability after 72 hrs; assay type: functional, cell-based; settings: HT-1080, 72 h
[10] = Tmax in NCR nude mouse at 10 mg/kg, po; assay type: ADME, organism-based; set-up: dose 10 mg/kg, route oral; settings: in vivo
[11] = Intrinsic clearance in CD-1 mouse hepatocytes at 1 uM after 10 mins by LC-MS/MS analysis; assay type: ADME, cell-based, Hepatocyte; settings: read-out: CLH
[12] = Intrinsic clearance in human hepatocytes at 1 uM after 10 mins by LC-MS/MS analysis; assay type: ADME, cell-based, Hepatocyte; settings: read-out: CLH
PC-3 = assay: Antiproliferative activity against human PC3 cells assessed as cell viability after 72 hrs; assay type: functional, cell-based; settings: PC-3, 72 h
[13] = Fraction unbound in mouse plasma at 5 uM after 4 hrs by LC-MS/MS analysis; assay type: ADME, cell-free
[14] = Clearance in NCR nude mouse plasma at 5 mg/kg, iv; assay type: ADME, organism-based; set-up: dose 5 mg/kg, route intravenous
[15] = Cmax in NCR nude mouse at 10 mg/kg, po; assay type: ADME, organism-based; set-up: dose 10 mg/kg, route oral; settings: in vivo
in vitro = settings: dog, MDCK
Mus musculus = assay: Toxicity in human U251 cells xenografted in athymic nu/nu mouse assessed as change in body weight at 25 mg/kg, po QD for 7 days; assay type: organism-based, U-251; set-up: dose 25 mg/kg, route oral; settings: in vivo, 168 h
[16] = Oral bioavailability in NCR nude mouse at 10 mg/kg; assay type: ADME, organism-based; settings: in vivo
HCT-116 = assay: Antiproliferative activity against human HCT116 cells assessed as cell viability after 72 hrs; assay type: functional, cell-based; settings: HCT-116, 72 h
[17] = as §1; assay type: ADME, Microsome; settings: liver microsomes, read-out: Stability

Chain of Nicotinamide phosphoribosyltransferase (P43490 whole entry): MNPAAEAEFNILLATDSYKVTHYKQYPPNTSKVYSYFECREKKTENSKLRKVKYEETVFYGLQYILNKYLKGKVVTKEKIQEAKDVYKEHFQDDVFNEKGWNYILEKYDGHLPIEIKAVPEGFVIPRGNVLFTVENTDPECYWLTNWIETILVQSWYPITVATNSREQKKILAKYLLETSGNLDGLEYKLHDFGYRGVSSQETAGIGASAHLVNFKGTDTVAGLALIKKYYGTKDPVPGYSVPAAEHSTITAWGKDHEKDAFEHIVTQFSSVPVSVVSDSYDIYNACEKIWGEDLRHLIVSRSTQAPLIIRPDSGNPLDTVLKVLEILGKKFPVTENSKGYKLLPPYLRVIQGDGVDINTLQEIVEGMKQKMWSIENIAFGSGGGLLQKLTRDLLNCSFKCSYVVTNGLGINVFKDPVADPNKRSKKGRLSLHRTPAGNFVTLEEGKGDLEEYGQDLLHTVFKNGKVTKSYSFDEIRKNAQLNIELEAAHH

Structure (SMILES)	IC50 [1] [nM]	IC50 (A2780) [nM]	Stability (Liver [2])	remaining at 0.5 h, 1 µM [3] [%]	fraction unbound at 4 h, 5 µM [7]	CLint scaled at 1 µM [11] [mL/min/kg]	CLint scaled at 1 µM [12] [mL/min/kg]	fraction unbound at 4 h, 5 µM [13]	Papp A→B at 10 µM (in vitro) [×10⁻⁶ cm/s]	remaining at 0.5 h, 1 µM [17] [%]	other results
Cn1c(C(=O)NCc2ccc(S(=O)(=O)c3ccccc3)cc2)cc2ccncc21	410	> 10000	BLD	71	–	–	–	–	–	–	–
O=C(NCc1ccc(S(=O)(=O)N2CCCCC2)cc1)c1cc2cnccc2s1	150	1600	BLD	15	–	–	–	–	–	–	–
O=C(NCc1ccc(S(=O)(=O)N2CCCCC2)cc1)c1cc2ccncc2[nH]1	1000	1700	BLD	50	–	–	–	–	–	–	–
O=C(NCc1ccc(S(=O)(=O)N2CCCCC2)cc1)c1cc2cccnc2s1	8	> 10000	BLD	–	–	–	–	–	–	–	Stability (Liver [4]): BLD
O=C(NCc1ccc(S(=O)(=O)N2CCCCC2)cc1)c1ccc2ncsc2c1	37	> 10000	BLD	24	–	–	–	–	–	–	–
O=C(NCc1ccc(S(=O)(=O)c2cc(F)cc(F)c2)cc1)c1ccc2nccn2c1	–	2	–	53	0.06	42	10	0.067	12	39	Activity (U-251 [5]): Active; AUC(0-inf) [6]: 3.06 µM·h; IC50 (MIA PaCa-2): 7.4 nM; IC50 (U-251 [8]): 1.8 nM; Vd [9]: 6.7 L/kg; IC50 (HT-1080): 2.1 nM; Tmax [10]: 15 min; IC50 (PC-3): 2.7 nM; clearance [14]: 52.4 mL/min/kg; Cmax [15]: 1210 nM; Activity (Mus musculus): Non-toxic; bioavailability [16]: 41.1%; IC50 (HCT-116): 2 nM
O=C(NCc1ccc(S(=O)(=O)c2ccc(N3CCOCC3)nc2)cc1)c1ccc2nccn2c1	6	1	–	65	0.012	43	10	0.025	3	75	–
O=C(NCc1ccc(S(=O)(=O)c2ccc(N3CCOCC3)nc2)cc1)c1cc2ccncc2o1	3	1	–	51	0.005	48	14	0.017	15	42	–
O=C(NCc1ccc(S(=O)(=O)c2ccc(N3CCOCC3)nc2)cc1)c1cnc2nccn2c1	1	2	–	86	0.028	69	6	0.12	0.3	86	–
O=C(NCc1ccc(S(=O)(=O)c2cccc(C(F)(F)F)c2)cc1)c1cc2cnccc2[nH]1	8	3	–	81	0.006	60	10	0.007	5	49	–
O=C(NCc1ccc(S(=O)(=O)c2cccc(C(F)(F)F)c2)cc1)c1cc2ccncc2o1	5	3	–	48	0.01	25	10	0.011	13	64	–
